Experiments:
NCI-H460 = test: cells; assay type: functional, cell-based; details: Homo sapiens, NCI-H460, 96 h;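 further: cytotoxicity determined with an MTT assay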
Description: Cytotoxicity against human NCI-H460 cells after 96 hrs by MTT assay

[1] = molecular target: Phosphatidylinositol 4,5-bisphosphate 3-kinase catalytic subunit alpha isoform (Homo sapiens, UniProt P42336); test: Inhibition of PI3Kalpha (unknown origin) using PIP2 as substrate by Kinase-Glo assay
Sequence of Phosphatidylinositol 4,5-bisphosphate 3-kinase catalytic subunit alpha isoform (P42336 whole entry, canonical isoform): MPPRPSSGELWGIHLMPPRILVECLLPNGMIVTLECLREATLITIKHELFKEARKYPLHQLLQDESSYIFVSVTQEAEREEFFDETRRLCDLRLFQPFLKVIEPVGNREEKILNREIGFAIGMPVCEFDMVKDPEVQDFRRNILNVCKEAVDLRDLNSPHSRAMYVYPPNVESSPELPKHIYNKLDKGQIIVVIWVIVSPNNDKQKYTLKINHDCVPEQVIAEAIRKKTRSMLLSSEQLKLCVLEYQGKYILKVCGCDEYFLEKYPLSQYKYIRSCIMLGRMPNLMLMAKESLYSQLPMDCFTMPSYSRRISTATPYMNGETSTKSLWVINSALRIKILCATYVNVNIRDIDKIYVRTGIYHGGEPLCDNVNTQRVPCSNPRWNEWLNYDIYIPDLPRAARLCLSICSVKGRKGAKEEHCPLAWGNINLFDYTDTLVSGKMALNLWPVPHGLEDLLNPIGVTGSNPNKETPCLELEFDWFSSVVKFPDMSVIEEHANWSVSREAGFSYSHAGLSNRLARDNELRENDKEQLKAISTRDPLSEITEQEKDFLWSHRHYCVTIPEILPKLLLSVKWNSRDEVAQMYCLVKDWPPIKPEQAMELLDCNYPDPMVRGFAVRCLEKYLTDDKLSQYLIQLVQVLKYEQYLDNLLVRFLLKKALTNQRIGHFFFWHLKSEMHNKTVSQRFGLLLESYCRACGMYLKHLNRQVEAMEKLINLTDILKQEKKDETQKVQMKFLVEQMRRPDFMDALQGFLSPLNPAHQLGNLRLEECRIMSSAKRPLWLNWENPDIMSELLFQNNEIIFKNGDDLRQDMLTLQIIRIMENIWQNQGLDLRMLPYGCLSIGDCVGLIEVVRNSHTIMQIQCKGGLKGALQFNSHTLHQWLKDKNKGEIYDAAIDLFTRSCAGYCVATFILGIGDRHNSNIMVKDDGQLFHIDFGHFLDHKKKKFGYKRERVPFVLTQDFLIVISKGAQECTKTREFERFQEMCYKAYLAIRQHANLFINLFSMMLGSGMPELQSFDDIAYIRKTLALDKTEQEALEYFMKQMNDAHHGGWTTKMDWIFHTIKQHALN

Compound | IC50 [1] | IC50 (NCI-H460)
COc1ncc(-c2cc(OC3CCOCC3)c3nc(N)nc(C)c3c2)cc1F | 16 nM | 1100 nM
COc1ncc(-c2cc(OC3CCOCC3)c3nc(N(C)C)nc(C)c3c2)cc1NS(=O)(=O)c1ccc(F)cc1F | 125 nM | 4300 nM
COc1ccc(-c2cc(OC3CCOCC3)c3nc(N)nc(C)c3c2)cn1 | 31 nM | 980 nM
COc1ncc(-c2cc(OC3CCOCC3)c3nc(NCC4CC4)nc(C)c3c2)cc1NS(=O)(=O)c1ccc(F)cc1F | 5.4 nM | 410 nM
COc1ncc(-c2cc(OC)c3nc(N)nc(C)c3c2)cc1NS(=O)(=O)c1ccc(F)cc1F | – | 280 nM
CNc1nc(C)c2cc(-c3cnc(OC)c(NS(=O)(=O)c4ccc(F)cc4F)c3)cc(OC3CCCCC3)c2n1 | 9.8 nM | 1700 nM
COc1ncc(-c2cc(OC3CCOCC3)c3nc(N)nc(C)c3c2)cc1NS(C)(=O)=O | 2.6 nM | 860 nM
CNc1nc(C)c2cc(-c3cnc(OC)c(NS(=O)(=O)c4ccc(F)cc4F)c3)cc(OC3CCCC3)c2n1 | 6.6 nM | –
COc1ncc(-c2cc(OC3CCOCC3)c3nc(N)nc(C)c3c2)cc1NS(=O)(=O)C1CC1 | 2.5 nM | 930 nM
CNc1nc(C)c2cc(-c3cnc(OC)c(NS(=O)(=O)c4ccc(F)cc4F)c3)cc(OC3CCC3)c2n1 | 4.1 nM | –
COc1ncc(-c2cc(OC3CCOCC3)c3nc(NC(C)=O)nc(C)c3c2)cc1NS(C)(=O)=O | 11 nM | 3200 nM
COc1ncc(-c2cc(OC3CCN(C)CC3)c3nc(N)nc(C)c3c2)cc1NS(=O)(=O)c1ccc(F)cc1F | 4.8 nM | 660 nM
COCCOc1cc(-c2cnc(OC)c(NS(=O)(=O)c3ccc(F)cc3F)c2)cc2c(C)nc(N)nc12 | – | 200 nM
COc1ncc(-c2cc(OCCN3CCOCC3)c3nc(N)nc(C)c3c2)cc1NS(=O)(=O)c1ccc(F)cc1F | 3.3 nM | 1100 nM

Further lines, with some results ahead:

IC50 [1] | Compound | IC50 (NCI-H460)
1.4 nM | COc1ncc(-c2cc(OC3CCOCC3)c3nc(NC(C)=O)nc(C)c3c2)cc1NS(=O)(=O)c1ccc(F)cc1F | 53 nM
1.1 nM | COc1ncc(-c2cc(OC3CCOCC3)c3nc(N)nc(C)c3c2)cc1NS(=O)(=O)c1ccc(F)cc1Cl | 17 nM
1.4 nM | CNc1nc(C)c2cc(-c3cnc(OC)c(NS(=O)(=O)c4ccc(F)cc4F)c3)cc(O[C@H]3CCOC3)c2n1 | –
2 nM | CNc1nc(C)c2cc(-c3cnc(OC)c(NS(=O)(=O)c4ccc(F)cc4F)c3)cc(OCC3CCOC3)c2n1 (stereo unspecified) | 310 nM
0.95 nM | COc1ncc(-c2cc(OC3CCCCC3)c3nc(N)nc(C)c3c2)cc1NS(=O)(=O)c1ccc(F)cc1F | 96 nM
1.7 nM | Cc1nc(N)nc2c(OC3CCOCC3)cc(-c3cnc(Cl)c(NS(=O)(=O)c4ccc(F)cc4)c3)cc12 | 1200 nM
0.83 nM | COc1ncc(-c2cc(O[C@H]3CCOC3)c3nc(N)nc(C)c3c2)cc1NS(=O)(=O)c1ccc(F)cc1F | 94 nM
0.95 nM | COc1ncc(-c2cc(OC3CCC3)c3nc(N)nc(C)c3c2)cc1NS(=O)(=O)c1ccc(F)cc1F | –
1.4 nM | Cc1ncc(-c2cc(OC3CCOCC3)c3nc(N)nc(C)c3c2)cc1NS(=O)(=O)c1ccc(F)cc1F | 2100 nM
1.1 nM | COc1ncc(-c2cc(OCC3CCCO3)c3nc(N)nc(C)c3c2)cc1NS(=O)(=O)c1ccc(F)cc1F (stereo unspecified) | –
0.87 nM | COc1ncc(-c2cc3c(C)nc(N)nc3n([C@H]3CC[C@H](OCCO)CC3)c2=O)cc1NS(=O)(=O)c1ccc(F)cc1F | 360 nM
1.8 nM | CNc1nc(C)c2cc(-c3cnc(OC)c(NS(=O)(=O)c4ccc(F)cc4F)c3)cc(OC3CCOC(C)(C)C3)c2n1 (stereo unspecified) | 250 nM
0.73 nM | COc1ncc(-c2cc(OCC3CCOCC3)c3nc(N)nc(C)c3c2)cc1NS(=O)(=O)c1ccc(F)cc1F | 21 nM
1.2 nM | COc1ncc(-c2cc(OCC3CCOC3)c3nc(N)nc(C)c3c2)cc1NS(=O)(=O)c1ccc(F)cc1F (stereo unspecified) | –
1.1 nM | COc1ncc(-c2cc(OC3CCOCC3)c3nc(N)nc(C)c3c2)cc1NS(=O)(=O)c1ccc(Cl)s1 | –
1.4 nM | COc1ncc(-c2cc(OCC3CC3)c3nc(N)nc(C)c3c2)cc1NS(=O)(=O)c1ccc(F)cc1F | 200 nM
1.6 nM | COc1ncc(-c2cc(OC3CCC(F)(F)CC3)c3nc(N)nc(C)c3c2)cc1NS(=O)(=O)c1ccc(F)cc1F | 83 nM
1.8 nM | CNc1nc(C)c2cc(-c3cnc(OC)c(NS(=O)(=O)c4ccc(F)cc4F)c3)cc(OCC3CCOCC3)c2n1 | 400 nM
1.5 nM | CCNc1nc(C)c2cc(-c3cnc(OC)c(NS(=O)(=O)c4ccc(F)cc4F)c3)cc(OC3CCOCC3)c2n1 | 240 nM
1.2 nM | COc1ncc(-c2cc(OC3CCOCC3)c3nc(N)nc(C)c3c2)cc1NS(=O)(=O)c1ccc(F)cc1 | 96 nM
0.7 nM | COc1ncc(-c2cc(OC(C)C)c3nc(N)nc(C)c3c2)cc1NS(=O)(=O)c1ccc(F)cc1F | 140 nM

Source: ChEMBL document CHEMBL4145625 (J Med Chem, 2018)
